From patent US12209081B2 (Katholieke Universiteit Leuven, priority 2020, dated 2025)

Molecular target: mouse TRPM3α2 (mTRPM3) ion channel (Mus musculus (Mouse), UniProt J9SQF3)
Assay: TRPM3 ion channel driven Ca2+ uptake, Fluo-4 AM assay, mTRPM3alpha2 overexpressing flip-in HEK293 cells stimulated with pregnenolone sulfate
Assay type: cell-based
Conditions: PS 50 μM, cpds 300-399
Method in brief: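 Read-out is Ca2+ influx via Fluo-4 AM fluorescence at 485/535 nm, taken right after seeding ~2000 cells/well onto compound with 50 μM PS. Inhibition computed from RFU between vehicle-stimulated and positive-control-inhibitor wells; cells were mTRPM3α2-overexpressing flip-in HEK293.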

mouse TRPM3α2 (mTRPM3) ion channel, sequence (J9SQF3 other isoform, or with tags, fused parts or gaps): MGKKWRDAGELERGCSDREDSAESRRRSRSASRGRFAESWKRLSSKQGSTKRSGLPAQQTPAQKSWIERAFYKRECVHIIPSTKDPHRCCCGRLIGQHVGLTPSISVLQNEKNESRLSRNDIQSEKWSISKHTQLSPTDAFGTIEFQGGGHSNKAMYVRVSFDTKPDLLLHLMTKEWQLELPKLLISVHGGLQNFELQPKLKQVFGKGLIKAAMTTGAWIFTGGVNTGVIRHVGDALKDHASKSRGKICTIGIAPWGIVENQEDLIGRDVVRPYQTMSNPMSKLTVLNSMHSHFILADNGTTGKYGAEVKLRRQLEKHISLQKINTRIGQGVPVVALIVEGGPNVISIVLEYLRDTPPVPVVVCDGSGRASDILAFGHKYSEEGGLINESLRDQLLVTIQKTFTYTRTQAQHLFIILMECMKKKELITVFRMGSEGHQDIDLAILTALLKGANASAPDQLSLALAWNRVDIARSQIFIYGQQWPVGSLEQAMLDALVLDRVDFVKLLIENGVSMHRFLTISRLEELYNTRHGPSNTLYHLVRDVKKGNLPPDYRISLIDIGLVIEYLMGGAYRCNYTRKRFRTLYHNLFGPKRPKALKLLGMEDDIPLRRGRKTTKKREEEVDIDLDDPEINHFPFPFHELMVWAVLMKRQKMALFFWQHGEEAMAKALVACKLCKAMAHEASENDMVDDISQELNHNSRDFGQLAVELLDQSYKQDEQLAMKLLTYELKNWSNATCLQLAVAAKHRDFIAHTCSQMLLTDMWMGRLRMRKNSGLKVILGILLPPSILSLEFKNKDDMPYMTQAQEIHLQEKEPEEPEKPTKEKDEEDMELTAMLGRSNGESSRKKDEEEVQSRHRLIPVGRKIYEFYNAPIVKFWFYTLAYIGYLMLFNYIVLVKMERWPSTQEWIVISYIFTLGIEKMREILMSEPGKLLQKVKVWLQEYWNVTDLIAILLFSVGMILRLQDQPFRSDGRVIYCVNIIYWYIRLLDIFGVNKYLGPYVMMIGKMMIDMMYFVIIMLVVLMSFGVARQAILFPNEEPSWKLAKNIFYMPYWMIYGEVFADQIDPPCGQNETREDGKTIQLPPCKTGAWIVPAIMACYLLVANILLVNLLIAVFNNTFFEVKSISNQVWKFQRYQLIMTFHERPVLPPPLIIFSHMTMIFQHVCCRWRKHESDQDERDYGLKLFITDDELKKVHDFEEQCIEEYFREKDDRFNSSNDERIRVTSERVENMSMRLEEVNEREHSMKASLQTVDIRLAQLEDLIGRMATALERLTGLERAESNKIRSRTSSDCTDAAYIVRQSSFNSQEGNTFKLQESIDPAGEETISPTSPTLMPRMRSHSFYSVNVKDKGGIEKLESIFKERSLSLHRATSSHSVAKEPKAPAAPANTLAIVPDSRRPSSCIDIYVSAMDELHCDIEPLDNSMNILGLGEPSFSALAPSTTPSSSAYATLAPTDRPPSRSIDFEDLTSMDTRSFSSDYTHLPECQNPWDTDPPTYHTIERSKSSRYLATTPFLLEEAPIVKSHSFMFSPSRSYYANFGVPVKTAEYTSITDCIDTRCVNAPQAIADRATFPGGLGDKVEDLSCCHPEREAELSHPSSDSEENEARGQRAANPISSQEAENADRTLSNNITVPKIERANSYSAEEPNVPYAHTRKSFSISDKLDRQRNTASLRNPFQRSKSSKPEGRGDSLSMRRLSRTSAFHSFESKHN

SMILES | IC50
Cc1oc2ccc(OCc3c(F)cnn3C)cc2c1C(=O)NC1(CO)CCOCC1 [compound 357, 5-((4-fluoro-1-methyl-1H-pyrazol-5-yl)methoxy)-N-(4-(hydroxymethyl)tetrahydro-2H-pyran-4-yl)-2-methylbenzofuran-3-carboxamide] | < 1 µM
Cc1oc2ccc(OCc3ccc(OCCO)cn3)cc2c1C(=O)NC1(CO)CCOCC1 [compound 358, 5-((5-(2-hydroxyethoxy)pyridin-2-yl)methoxy)-N-(4-(hydroxymethyl)tetrahydro-2H-pyran-4-yl) -2-methylbenzofuran-3-carboxamide] | > 20 µM
Cc1oc2ccc(OCc3ccc(F)cn3)cc2c1C(=O)NC1(CO)CCOCC1 [compound 359, 5-((5-fluoropyridin-2-yl)methoxy)-N-(4-(hydroxymethyl)tetrahydro-2H-pyran-4-yl)-2-methylbenzofuran-3-carboxamide] | < 1 µM
Cc1ncc(COc2ccc3oc(C)c(C(=O)NCC4(C#N)CC4)c3c2)s1 [compound 370, N-((1-cyanocyclopropyl)methyl)-2-methyl-5-((2-methylthiazol-5-yl)methoxy)benzofuran-3-carboxamide] | < 1 µM
Cc1ncc(COc2ccc3oc(C)c(C(=O)NCC4(F)CC4)c3c2)s1 [compound 372, N-((1-fluorocyclopropyl)methyl)-2-methyl-5-((2-methylthiazol-5-yl)methoxy)benzofuran-3-carboxamide] | < 1 µM
Cc1ncsc1COc1ccc2oc(C)c(C(=O)NCc3cc[nH]n3)c2c1 [compound 374, N-((1H-pyrazol-3-yl)methyl)-2-methyl-5-((4-methylthiazol-5-yl)methoxy)benzofuran-3-carboxamide] | < 1 µM
Cc1ncc(COc2ccc3oc(C)c(C(=O)N[C@H](C(N)=O)[C@@H](C)O)c3c2)o1 [compound 375, N-((2S,3R)-1-amino-3-hydroxy-1-oxobutan-2-yl)-2-methyl-5-((2-methyloxazol-5-yl)methoxy)benzofuran-3-carboxamide] | < 1 µM
Cc1ncccc1COc1ccc2oc(C)c(C(=O)N[C@H](C(N)=O)[C@@H](C)O)c2c1 [compound 376, N-((2S,3R)-1-amino-3-hydroxy-1-oxobutan-2-yl)-2-methyl-5-((2-methylpyridin-3-yl)methoxy)benzofuran-3-carboxamide] | < 1 µM
Cc1ncc(COc2ccc3oc(C)c(C(=O)N[C@H](C(N)=O)[C@@H](C)O)c3c2)s1 [compound 377, N-((2S,3R)-1-amino-3-hydroxy-1-oxobutan-2-yl)-2-methyl-5-((2-methylthiazol-5-yl)methoxy)benzofuran-3-carboxamide] | < 1 µM
Cc1ncsc1COc1ccc2oc(C)c(C(=O)N[C@H](C(N)=O)[C@@H](C)O)c2c1 [compound 378, N-((2S,3R)-1-amino-3-hydroxy-1-oxobutan-2-yl)-2-methyl-5-((4-methylthiazol-5-yl)methoxy)benzofuran-3-carboxamide] | < 1 µM
Cc1ccc(COc2ccc3oc(C)c(C(=O)N[C@H](C(N)=O)[C@@H](C)O)c3c2)cn1 [compound 380, N-((2S,3R)-1-amino-3-hydroxy-1-oxobutan-2-yl)-2-methyl-5-((6-methylpyridin-3-yl)methoxy)benzofuran-3-carboxamide] | < 1 µM
Cc1nc(C)c(COc2ccc3oc(C)c(C(=O)N[C@H](C(N)=O)[C@@H](C)O)c3c2)s1 [compound 382, N-((2S,3R)-1-amino-3-hydroxy-1-oxobutan-2-yl)-5-((2,4-dimethylthiazol-5-yl)methoxy)-2-methylbenzofuran-3-carboxamide] | < 1 µM
Cc1oc2ccc(OCc3c(F)cnn3C)cc2c1C(=O)N[C@H](C(N)=O)[C@@H](C)O [compound 383, N-((2S,3R)-1-amino-3-hydroxy-1-oxobutan-2-yl)-5-((4-fluoro-1-methyl-1H-pyrazol-5-yl)methoxy)-2-methylbenzofuran-3-carboxamide] | < 1 µM
Cc1ncc(COc2ccc3oc(C)c(C(=O)NCC4(F)COC4)c3c2)s1 [compound 384, N-((3-fluorooxetan-3-yl)methyl)-2-methyl-5-((2-methylthiazol-5-yl)methoxy)benzofuran-3-carboxamide] | < 1 µM
Cc1oc2ccc(OCc3cccnc3C(F)(F)F)cc2c1C(=O)N[C@@H]1C(=O)NC[C@H]1O [compound 390, N-((3S,4R)-4-hydroxy-2-oxopyrrolidin-3-yl)-2-methyl-5-((2-(trifluoromethyl)pyridin-3-yl)methoxy)benzofuran-3-carboxamide] | < 1 µM
Cc1ncc(COc2ccc3oc(C)c(C(=O)N[C@@H]4C(=O)NC[C@H]4O)c3c2)s1 [compound 391, N-((3S,4R)-4-hydroxy-2-oxopyrrolidin-3-yl)-2-methyl-5-((2-methylthiazol-5-yl)methoxy)benzofuran-3-carboxamide] | < 1 µM
Cc1ncsc1COc1ccc2oc(C)c(C(=O)N[C@@H]3C(=O)NC[C@H]3O)c2c1 [compound 392, N-((3S,4R)-4-hydroxy-2-oxopyrrolidin-3-yl)-2-methyl-5-((4-methylthiazol-5-yl)methoxy)benzofuran-3-carboxamide] | < 1 µM

Next, values leading:

IC50 | SMILES
< 1 µM | Cc1ncsc1COc1cc2c(C(=O)NC3(CO)CC3)c(C)oc2cc1F [compound 361, 6-fluoro-N-(1-(hydroxymethyl)cyclopropyl)-2-methyl-5-((4-methylthiazol-5-yl)methoxy)benzofuran-3-carboxamide]
< 1 µM | Cc1ncsc1COc1cc2c(C(=O)NC3(CO)COC3)c(C)oc2cc1F [compound 362, 6-fluoro-N-(3-(hydroxymethyl)oxetan-3-yl)-2-methyl-5-((4-methylthiazol-5-yl)methoxy)benzofuran-3-carboxamide]
< 1 µM | Cc1oc2cc(F)c(OCc3cccnc3O)cc2c1C(=O)NC1(CO)CCOCC1 [compound 363, 6-fluoro-N-(4-(hydroxymethyl)tetrahydro-2H-pyran-4-yl)-2-methyl-5-((2-oxo-1,2-dihydropyridin-3-yl)methoxy)benzofuran-3-carboxamide]
< 1 µM | COc1ncccc1COc1cc2c(C(=O)NC3(CO)CCOCC3)c(C)oc2cc1F [compound 364, 6-fluoro-N-(4-(hydroxymethyl)tetrahydro-2H-pyran-4-yl)-5-((2-methoxypyridin-3-yl)methoxy)-2-methylbenzofuran-3-carboxamide]
< 1 µM | Cc1ncsc1COc1cc(F)c2oc(C)c(C(=O)NC3(CO)COC3)c2c1 [compound 367, 7-fluoro-N-(3-(hydroxymethyl)oxetan-3-yl)-2-methyl-5-((4-methylthiazol-5-yl)methoxy)benzofuran-3-carboxamide]
< 1 µM | Cc1ncsc1COc1ccc2oc(C)c(C(=O)NCC3(C#N)CC3)c2c1 [compound 371, N-((1-cyanocyclopropyl)methyl)-2-methyl-5-((4-methylthiazol-5-yl)methoxy)benzofuran-3-carboxamide]
< 1 µM | Cc1ncsc1COc1ccc2oc(C)c(C(=O)NCC3(F)CC3)c2c1 [compound 373, N-((1-fluorocyclopropyl)methyl)-2-methyl-5-((4-methylthiazol-5-yl)methoxy)benzofuran-3-carboxamide]
< 1 µM | Cc1ncsc1COc1ccc2oc(C)c(C(=O)NCC3(F)COC3)c2c1 [compound 385, N-((3-fluorooxetan-3-yl)methyl)-2-methyl-5-((4-methylthiazol-5-yl)methoxy)benzofuran-3-carboxamide]
